{"source": "paper PMC3765993", "about": "“The duration of sleep promoting efficacy by dual orexin receptor antagonists is dependent upon receptor occupancy threshold” (BMC Neuroscience, 2013)", "key": {"[1]": {"assay": "Plasma and CSF compound levels in satellite rats", "details": "rats", "method": "Separately, the relationship between OX2R occupancy relative to plasma exposure was determined by administering DORA-12 intravenously (i.v.) over a range of doses to transgenic rats expressing human OX2R to determine a full occupancy curve over a wide range of plasma concentrations in order to define the maximal occupancy against which raw occupancy values could be normalized. This relationship was then used to determine the OX2R occupancy in PSG experiments from measured plasma concentrations.\nOccupancy of human OX2R in transgenic rats expressing the receptor via the rat enolase promoter was performed ex vivo in radioligand-binding-displacement assays essentially as previously described with minor modifications. To determine the relationship between OX2R occupancy for a given compound over a full range of plasma and CSF concentrations, hOX2R-expressing rats were dosed i.v. with compound. Immediately following 30 min of i.v. administration, animals were anesthetized, sacrificed, and CSF, blood, and brain tissue were harvested and frozen for analysis. Frozen tissue was weighed and thawed coincident with homogenization. The homogenate was pelleted at 21,000 × g for 1 min and the pellet was resuspended. […] Non-specific binding was determined by the addition of 1000-fold excess unlabeled ligand. Experimental (dosed)-specific binding was compared with control (vehicle-dosed) binding ([specific total counts minus specific experimental counts]/specific total counts × 100 = percent occupancy). Raw occupancy values determined in this manner over a range of plasma and CSF values were then used to construct a normalized curve where the theoretical maximum occupancy value was defined as 100% and occupancies relative to plasma or CSF values were fit to a […] (hyperbola) curve (GraphPad Prism, San Diego, CA, USA). […] In separate experiments, plasma, CSF, and brain tissue was collected at time points following dosing to directly measure compound levels and corresponding OX2R occupancies at these times. Resulting occupancy relative to measured plasma levels of compound was fit to a normalized binding curve as described previously."}, "[2]": {"biological_target": "T1, OX2R (Homo sapiens, UniProt O43614)", "T1 sequence (O43614 1-444)": "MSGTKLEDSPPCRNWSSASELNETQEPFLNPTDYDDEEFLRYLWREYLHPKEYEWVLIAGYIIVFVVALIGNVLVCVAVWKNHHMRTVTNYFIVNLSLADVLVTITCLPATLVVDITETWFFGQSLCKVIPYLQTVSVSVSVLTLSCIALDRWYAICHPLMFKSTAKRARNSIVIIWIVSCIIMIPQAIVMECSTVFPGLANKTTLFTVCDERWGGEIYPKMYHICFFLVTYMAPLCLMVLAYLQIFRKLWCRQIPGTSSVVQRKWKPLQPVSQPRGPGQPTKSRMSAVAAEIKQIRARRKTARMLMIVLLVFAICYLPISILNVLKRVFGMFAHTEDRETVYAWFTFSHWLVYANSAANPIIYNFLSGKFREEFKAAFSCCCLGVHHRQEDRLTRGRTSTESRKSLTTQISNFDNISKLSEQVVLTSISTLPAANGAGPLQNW", "assay": "Human plasma concentration calculated for a given OX2R occupancy (from transgenic rat occupancy, free-fraction normalized)", "assay_type": "in vivo", "details": "free + bound; normalized for free fraction (rat 1.4%, human 1.0%)"}, "[3]": {"system": "dogs", "details": "cited from earlier work"}, "[4]": {"biological_target": "T1, OX2R", "details": "free + bound; cited from earlier work"}, "[5]": {"assay": "Free plasma fraction, human"}, "[6]": {"biological_target": "T2, Orexin 2 receptor (Homo sapiens, UniProt O43614)", "T2 sequence (O43614 1-444)": "T1 sequence (O43614 1-444)", "assay": "Orexin 2 receptor binding kinetics"}, "[7]": {"assay": "Unbound (free) plasma fraction, rat"}, "[8]": {"assay": "Unbound (free) plasma fraction, dog"}, "[9]": {"assay": "Suvorexant plasma levels in satellite dogs", "details": "1 or 3 mg/kg p.o."}, "[10]": {"assay": "Suvorexant plasma levels in humans (Phase 1)"}, "[11]": {"biological_target": "T1, OX2R", "assay": "OX2R occupancy, ex vivo radioligand-binding displacement in transgenic rats expressing human OX2R", "parameters": "from tissue; host or cells: brain homogenate of transgenic rats expressing hOX2R under the rat enolase promoter; species or system transgenic rat", "details": "rats, calculated from plasma value on normalized occupancy curve", "excerpt": "Frozen tissue was weighed and thawed coincident with homogenization."}}, "note": "Read-outs that look alike come from different tables or passages of the source.", "data": [{"smiles": "Cc1ccc(-n2nccn2)c(C(=O)N2CCN(c3nc4cc(Cl)ccc4o3)CC[C@H]2C)c1", "note": "[Suvorexant, [(7R)-4-(5-chloro-1,3-benzoxazol-2-yl)-7-methyl-1,4-diazepan-1-yl][5-methyl-2-(2H-1,2,3-triazol-2-yl)phenyl]methanone]", "values": [{"measurement": "Plasma", "setting": "[1]; dose 10 mg/kg", "value": 1600.0, "unit": "nM"}, {"measurement": "Plasma", "setting": "[1]; dose 30 mg/kg", "value": 2100.0, "unit": "nM"}, {"measurement": "Plasma", "setting": "[1]; dose 100 mg/kg", "value": 5100.0, "unit": "nM"}, {"measurement": "Human plasma concentration calculated to correspond to 65% OX2R occupancy", "setting": "[2]", "value": 0.33, "unit": "µM"}, {"measurement": "Duration of effects on active wake", "setting": "[3]; 1 mg/kg", "value": "up to 4 h"}, {"measurement": "Duration of effects on active wake", "setting": "[3]; 3 mg/kg", "value": "up to 7.5 h"}, {"measurement": "Plasma level calculated to correspond to 80% OX2R occupancy in humans", "setting": "[4]", "value": 0.71, "unit": "µM"}, {"measurement": "fraction unbound", "setting": "[5]", "value": 0.01}, {"measurement": "T1/2 OFF (half-life off-rates)", "setting": "[6]", "value": 89.4, "unit": "min"}, {"measurement": "T1/2 ON (binding half-life)", "setting": "[6]; almorexant applied 3-fold above its Kd (value an underestimate)", "value": 80.1, "unit": "min"}, {"measurement": "fraction unbound", "setting": "[7]", "value": 0.014}, {"measurement": "fraction unbound", "setting": "[8]", "value": 0.01}, {"measurement": "Plasma concentration at time points when efficacy was observed", "setting": "[9]", "value": "> 0.342", "unit": "µM"}, {"measurement": "Plasma exposure corresponding to efficacy", "setting": "[9]", "value": "> 342", "unit": "nM"}, {"measurement": "Tmax", "setting": "[10]; human, in vivo", "value": "≤ 3", "unit": "h"}, {"measurement": "half-life", "setting": "[10]; human, in vivo", "value": "> 480", "unit": "min"}, {"measurement": "Post-dose time by which mean plasma concentrations fell below level for 65% OX2R occupancy", "setting": "[10]; humans, 10 and 20 mg doses", "value": "≤ 8", "unit": "h"}, {"measurement": "OX2R Occ (% max)", "setting": "[11]; dose 10 mg/kg", "value": 92.6, "unit": "% max"}, {"measurement": "OX2R Occ (% max)", "setting": "[11]; dose 30 mg/kg", "value": 94.3, "unit": "% max"}, {"measurement": "OX2R Occ (% max)", "setting": "[11]; dose 100 mg/kg", "value": 97.6, "unit": "% max"}]}]}
